This test deals with wide range of bacteria (1050 organisms; clinical isolates from a number of bacterial and fungal species). The test is described as follows: in vitro minimum inhibitory concentration (MIC) testing. The test is classed as cell-based. The note with it: concentration of olanexidine solution inhibiting >95% of 1050 organisms. From the text:
The bacteria included in the MIC testing study included clinical isolates from a number of bacterial and fungal species. The MIC method is a widely accepted methodology that is useful for determining and comparing in vitro antimicrobial activity, while the Pig Skin Model is useful for determining activity under simulated conditions of use. The following chart summarizes the results obtained with the Pig Skin Model: […]

What is called MIC is the lowest concentration that inhibits growth of the organism. A high value points to a less susceptible organism.

In turn, `CCCCCCCCNC(=N)NC(=N)NCc1ccc(Cl)c(Cl)c1` [olanexidine, 1-(3,4-dichlorobenzyl)-5-octylbiguanide] returned an MIC not above 32 µg/mL.

Source of the values: US8911771B2, “Fluid application device and method” (Otsuka America Pharmaceutical, Inc., priority 2004, dated 2014).
